Source: patent US20260325685A1, “Radiopharmaceutical Compositions Targeting Carbonic Anhydrase IX and Uses Thereof” (RayzeBio, Inc., priority 2023, published 2026)
Where two headings read alike, the source gives them in different places.

Columns and labels:
human CA-IX = target: T1, human CA-IX (Homo sapiens, UniProt Q16790); assay: Surface Plasmon Resonance (SPR) binding kinetics to recombinant human CA-IX (Biacore 8K, single-cycle kinetics, 1:1 binding model)
T1 construct: purchased Acro CA9-H82E3
Summary of the method: (§1)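 At 25° C, compound was injected at nine concentrations from 100 to 0.39 nM (PBS-P+ pH 7.4, 1% DMSO) over streptavidin-captured recombinant human CA-IX or CA-XII (1200-1800 RU). Association 120 s, dissociation 1200 s, single-cycle format; association and dissociation constants from 1:1 kinetic fits.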

human CA-XII = target: T2, human CA-XII (Homo sapiens, UniProt O43570); assay: Surface Plasmon Resonance (SPR) binding kinetics to recombinant human CA-XII (Biacore 8K, single-cycle kinetics, 1:1 binding model)
T2 construct: purchased Creative BioMart CA12-261H
Summary of the method: as §1

[1] = Chelated Metal: Lu-175; SPR, 25° C., pH 7.4; read-out: CAIX KD
[2] = Chelated Metal: Lu-175, 25° C., pH 7.4, read-out: CAXII KD
[3] = read-out: CAIX KD; Chelated Metal: Lu-175; SPR, 25° C., pH 7.4
[4] = read-out: CAXII KD, Chelated Metal: Lu-175, 25° C., pH 7.4

T2 sequence (O43570 25-354): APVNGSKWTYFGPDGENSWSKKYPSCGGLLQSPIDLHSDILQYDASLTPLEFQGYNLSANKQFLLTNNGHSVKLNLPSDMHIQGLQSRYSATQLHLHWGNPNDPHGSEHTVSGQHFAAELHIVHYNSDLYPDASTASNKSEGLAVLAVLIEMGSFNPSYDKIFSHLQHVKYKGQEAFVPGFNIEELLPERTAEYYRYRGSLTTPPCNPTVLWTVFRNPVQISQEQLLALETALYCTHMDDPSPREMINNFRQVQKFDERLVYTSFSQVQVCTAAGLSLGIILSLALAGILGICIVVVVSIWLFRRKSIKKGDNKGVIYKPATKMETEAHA

SMILES | Kd (human CA-IX; [1]) [nM] | Kd (human CA-XII; [2]) [nM] | other results
CC(CCCC(=O)N1CCC(C(N)=O)(C(=O)NCC(=O)N2CCN(C(=O)CC[C@H](C(=O)O)N3CCN(CC(=O)O)CCN(CC(=O)O)CCN(CC(=O)O)CC3)C[C@H]2C(=O)NCCn2cc(C34CC(C(=O)Nc5nnc(S(N)(=O)=O)s5)(C3)C4)nn2)CC1)(c1ccc(O)cc1)c1ccc(O)cc1.[Lu+3] [Compound 127.1] | < 1 | > 10 | –
CC(CCCC(=O)N1CCC(C(N)=O)(C(=O)NCC(=O)NC2(C(=O)N[C@@H](Cn3cc(C45CC(C(=O)Nc6nnc(S(N)(=O)=O)s6)(C4)C5)nn3)C(=O)O)CCN(C(=O)CN3CCN(CC(=O)O)CCN(CC(=O)O)CCN(CC(=O)O)CC3)CC2)CC1)(c1ccc(O)cc1)c1ccc(O)cc1.[Lu+3] [Compound 134] | – | – | Kd (human CA-IX; [3]): < 1 nM; Kd (human CA-XII; [4]): > 10 nM
CC(CCCC(=O)N1CCC(C(N)=O)(C(=O)NCC(=O)NC2(C(=O)NCCn3cc(COc4ccc5nc(S(N)(=O)=O)sc5c4)nn3)CCN(C(=O)CN3CCN(CC(=O)O)CCN(CC(=O)O)CCN(CC(=O)O)CC3)CC2)CC1)(c1ccc(O)cc1)c1ccc(O)cc1.[Lu+3] [Compound 117.8] | < 1 | > 10 | –
CC(CCC(=O)N1CCOC[C@H]1C(=O)N[C@@H](CC(=O)N1CCN(C(=O)CN2CCN(CC(=O)O)CCN(CC(=O)O)CCN(CC(=O)O)CC2)C[C@@H]1C(=O)NCCn1cc(C23CC(C(=O)Nc4nnc(S(N)(=O)=O)s4)(C2)C3)nn1)C(=O)O)(c1ccc(O)cc1)c1ccc(O)cc1.[Lu+3] [Compound 107.8] | 1 to 2.5 | > 10 | –
NS(=O)(=O)c1nnc(NC(=O)C23CC(c4cn(CCNC(=O)[C@@H]5CN(C(=O)CN6CCN(CC(=O)O)CCN(CC(=O)O)CCN(CC(=O)O)CC6)CCN5C(=O)C[C@H](NC(=O)C[C@H](NC(=O)c5coc(C(F)(F)F)n5)C(=O)O)C(=O)O)nn4)(C2)C3)s1.[Lu+3] [Compound 109.17] | 2.5 to 10 | > 10 | –
CC(CCCC(=O)N1CCOC[C@H]1C(=O)N[C@@H](CC(=O)N1CCN(C(=O)CN2CCN(CC(=O)O)CCN(CC(=O)O)CCN(CC(=O)O)CC2)C[C@@H]1C(=O)NCCn1cc(C23CC(C(=O)Nc4nnc(S(N)(=O)=O)s4)(C2)C3)nn1)C(N)=O)(c1ccc(O)cc1)c1ccc(O)cc1.[Lu+3] [Compound 107.44] | < 1 | > 10 | –
N[C@@H](CC(=O)N[C@@H](CC(=O)N1CCN(C(=O)CCOCCOCCOCCOCCN(CCOCCOCCOCCOCCC(=O)N2CCN(C(=O)C[C@H](NC(=O)C[C@H](N)C(=O)O)C(=O)O)[C@H](C(=O)NCCn3cc(C45CC(C(=O)Nc6nnc(S(N)(=O)=O)s6)(C4)C5)nn3)C2)C(=O)CNC(=O)CN2CCN(CC(=O)O)CCN(CC(=O)O)CCN(CC(=O)O)CC2)C[C@H]1C(=O)NCCn1cc(C23CC(C(=O)Nc4nnc(S(N)(=O)=O)s4)(C2)C3)nn1)C(=O)O)C(=O)O.[Lu+3] [Compound 131.5] | < 1 | < 1 | –
NS(=O)(=O)c1nnc(NC(=O)C23CCC(c4cn(CCNC(=O)[C@@H]5CN(C(=O)CN6CCN(CC(=O)O)CCN(CC(=O)O)CCN(CC(=O)O)CC6)CCN5C(=O)CC[C@H](NC(=O)C[C@H](NC(=O)Cc5[nH]nc6ccc(O)cc56)C(=O)O)C(=O)O)nn4)(CC2)CC3)s1.[Lu+3] [Compound 109.41] | < 1 | < 1 | –
CC(CC(=O)N1CCC(C(N)=O)(C(=O)NCC(=O)N[C@@H](CCCCn2cc(CCCC(=O)Nc3nnc(S(N)(=O)=O)s3)nn2)C(=O)NCCOCCOCCNC(=O)CN2CCN(CC(=O)O)CCN(CC(=O)O)CCN(CC(=O)O)CC2)CC1)(c1ccc(O)cc1)c1ccc(O)cc1.[Lu+3] [Compound 102.2] | 2.5 to 10 | > 10 | –
NS(=O)(=O)c1nnc(NC(=O)C23CCC(c4cn(CCNC(=O)[C@@H]5CN(C(=O)CN6CCN(CC(=O)O)CCN(CC(=O)O)CCN(CC(=O)O)CC6)CCN5C(=O)CC[C@H](NC(=O)C[C@H](NC(=O)c5cc(C(F)(F)F)[nH]n5)C(=O)O)C(=O)O)nn4)(CC2)CC3)s1.[Lu+3] [Compound 109.47] | < 1 | < 1 | –
CC(CCC(=O)N[C@@H](CC(=O)N[C@@H](CC(=O)N1CCN(C(=O)CN2CCN(CC(=O)O)CCN(CC(=O)O)CCN(CC(=O)O)CC2)C[C@H]1C(=O)NCCn1cc(C23CC(C(=O)Nc4nnc(S(N)(=O)=O)s4)(C2)C3)nn1)C(N)=O)C(N)=O)(c1ccc(O)cc1)c1ccc(O)cc1.[Lu+3] [Compound 107.47] | 1 to 2.5 | > 10 | –
CC(CCCC(=O)N1CCC(C(N)=O)(C(=O)NCC(=O)NC2(C(=O)NCCn3cc(C45CC(c6cn7nc(S(N)(=O)=O)sc7n6)(C4)C5)nn3)CCN(C(=O)CN3CCN(CC(=O)O)CCN(CC(=O)O)CCN(CC(=O)O)CC3)CC2)CC1)(c1ccc(O)cc1)c1ccc(O)cc1.[Lu+3] [Compound 117.5] | < 1 | 2.5 to 10 | –
NS(=O)(=O)c1nnc(NC(=O)C23CCC(c4cn(CCNC(=O)[C@@H]5CN(C(=O)CN6CCN(CC(=O)O)CCN(CC(=O)O)CCN(CC(=O)O)CC6)CCN5C(=O)CC[C@H](NC(=O)C[C@H](NC(=O)CCC5CCCCCC5)C(=O)O)C(=O)O)nn4)(CC2)CC3)s1.[Lu+3] [Compound 109.46] | < 1 | < 1 | –
CCCCNc1c(F)c(S(N)(=O)=O)c(F)c(F)c1S(=O)(=O)CCOCc1cn(CCNC(=O)[C@H]2CN(C(=O)CN3CCN(CC(=O)O)CCN(CC(=O)O)CCN(CC(=O)O)CC3)CCN2C(=O)C[C@H](NC(=O)[C@@H]2COCCN2C(=O)CCCc2ccc(O)cc2)C(=O)O)nn1.[Lu+3] [Compound 107.54] | 2.5 to 10 | > 10 | –
CC(CCCC(=O)N1CCC(C(N)=O)(C(=O)NCC(=O)N2CCN(C(=O)CCC(C(=O)O)N3CCN(CC(=O)O)CCN(CC(=O)O)CC3)C[C@@H]2C(=O)NCCn2cc(C34CC(C(=O)Nc5nnc(S(N)(=O)=O)s5)(C3)C4)nn2)CC1)(c1ccc(O)cc1)c1ccc(O)cc1.[Cu+2] (some centres unmarked) [Compound 127.3] | – | – | Kd (human CA-IX; Chelated Metal: Cu (cold); SPR, 25° C., pH 7.4; read-out: CAIX KD): < 1 nM; Kd (human CA-XII; Chelated Metal: Cu (cold), 25° C., pH 7.4, read-out: CAXII KD): > 10 nM
CC(CCC(=O)N[C@@H](CC(=O)N[C@@H](Cc1cn([C@@H](CCCCn2cc(C34CCC(C(=O)Nc5nnc(S(N)(=O)=O)s5)(CC3)CC4)nn2)C(=O)NCCOCCOCCNC(=O)CN2CCN(CC(=O)O)CCN(CC(=O)O)CCN(CC(=O)O)CC2)nn1)C(=O)O)C(=O)O)(c1ccc(O)cc1)c1ccc(O)cc1.[Lu+3] [Compound 101] | – | – | Kd (human CA-IX; [3]): < 1 nM; Kd (human CA-XII; [4]): < 1 nM
Cc1c(C(=O)N[C@@H](CC(=O)N[C@@H](CC(=O)N2CCN(C(=O)CN3CCN(CC(=O)O)CCN(CC(=O)O)CCN(CC(=O)O)CC3)C[C@H]2C(=O)NCCn2cc(C34CC(C(=O)Nc5nnc(S(N)(=O)=O)s5)(C3)C4)nn2)C(=O)O)C(=O)O)n[nH]c1C(F)(F)F.[Lu+3] [Compound 109.3] | < 1 | < 1 | –
Cc1cc(C(=O)Nc2nnc(S(N)(=O)=O)s2)ccc1-c1cn(CCNC(=O)[C@@H]2CN(C(=O)CN3CCN(CC(=O)O)CCN(CC(=O)O)CCN(CC(=O)O)CC3)CCN2C(=O)C[C@H](NC(=O)C[C@H](NC(=O)CCC(C)(c2ccc(O)cc2)c2ccc(O)cc2)C(=O)O)C(=O)O)nn1.[Lu+3] [Compound 107.35] | < 1 | > 10 | –
NS(=O)(=O)c1nnc(NC(=O)C23CC(c4cn(CCNC(=O)[C@@H]5CN(C(=O)CN6CCN(CC(=O)O)CCN(CC(=O)O)CCN(CC(=O)O)CC6)CCN5C(=O)C[C@H](NC(=O)C[C@H](NC(=O)CCc5ccc(O)cc5)C(=O)O)C(=O)O)nn4)(C2)C3)s1.[Lu+3] [Compound 109.5] | 1 to 2.5 | 2.5 to 10 | –
CC(CCCC(=O)N1CCOC[C@H]1C(=O)N[C@@H](CC(=O)NC1(C(=O)NCCn2cc(C34CC(C(=O)Nc5nnc(S(N)(=O)=O)s5)(C3)C4)nn2)CCN(C(=O)CN2CCN(CC(=O)O)CCN(CC(=O)O)CCN(CC(=O)O)CC2)CC1)C(=O)O)(c1ccc(O)cc1)c1ccc(O)cc1.[Lu+3] [Compound 117.3] | < 1 | > 10 | –
NS(=O)(=O)c1nnc(NC(=O)C23CCC(c4cn(CCNC(=O)[C@@H]5CN(C(=O)CN6CCN(CC(=O)O)CCN(CC(=O)O)CCN(CC(=O)O)CC6)CCN5C(=O)CC[C@H](NC(=O)C[C@H](NC(=O)CCC56CCC(CC5)C6)C(=O)O)C(=O)O)nn4)(CC2)CC3)s1.[Lu+3] [Compound 109.57] | < 1 | < 1 | –
CC(CCCC(=O)N1CCC(C(N)=O)(C(=O)NCC(=O)NC2(C(=O)NCCn3cc(C45CC(C(=O)Nc6nnc(S(N)(=O)=O)s6)(C4)C5)nn3)CCN(C(=O)CN3C[C@@H]4CN(C(=O)CN5CCN(CC(=O)O)CCN(CC(=O)O)CCN(CC(=O)O)CC5)C[C@@H]4C3)CC2)CC1)(c1ccc(O)cc1)c1ccc(O)cc1.[Lu+3] (racemic) [Compound 129.6] | < 1 | > 10 | –
CC(CCC(=O)N[C@@H](CC(=O)N[C@@H](CC(=O)N[C@@H](CCCn1cc(C23CCC(C(=O)Nc4nnc(S(N)(=O)=O)s4)(CC2)C3)nn1)C(=O)NCCOCCOCCNC(=O)CN1CCN(CC(=O)O)CCN(CC(=O)O)CCN(CC(=O)O)CC1)C(=O)O)C(=O)O)(c1ccc(O)cc1)c1ccc(O)cc1.[Lu+3] [Compound 100.5] | < 1 | < 1 | –
CC[C@H]1CN(CC(=O)O)[C@@H](CC)CN(CC(=O)N2CCN(C(=O)CNC(=O)C3(C(N)=O)CCN(C(=O)CCCC(C)(c4ccc(O)cc4)c4ccc(O)cc4)CC3)[C@H](C(=O)NCCn3cc(C45CC(C(=O)Nc6nnc(S(N)(=O)=O)s6)(C4)C5)nn3)C2)[C@@H](CC)CN(CC(=O)O)[C@@H](CC)CN1CC(=O)O.[Lu+3] [Compound 128.1] | < 1 | > 10 | –
CC(CCC(=O)N[C@@H](CC(=O)N[C@@H](CC(=O)NC1(C(=O)NCCOCCOCCNC(=O)CN2CCN(CC(=O)O)CCN(CC(=O)O)CCN(CC(=O)O)CC2)CN(C(=O)Cn2cc(CCCC(=O)Nc3nnc(S(N)(=O)=O)s3)nn2)C1)C(=O)O)C(=O)O)(c1ccc(O)cc1)c1ccc(O)cc1.[Lu+3] [Compound 103] | – | – | Kd (human CA-IX; [3]): 1 to 2.5 nM; Kd (human CA-XII; [4]): 2.5 to 10 nM
